The source of these data is patent US20040176422A1, “Heteroarylheteroalkylamine derivatives and their use as inhibitors of nitric oxide synthase” (priority 2001, published 2004).

Where a name gives a salt, the structure may show the parent alone.

`COc1cc(S[C@H](CCN)c2ccno2)c(Cl)cn1` (as salt: salt) [Example 15, γ-[(5-Chloro-2-methoxy-4-pyridinyl)thio]-(γ^5R)-5-isoxazolepropanamine (E)-butenedioate] yielded a melting point of 142 to 143 °C. Compound `Cc1ccc(C#N)c(S[C@H](CCN)c2ccno2)n1` [Example 6, 2-[[(1R)-3-Amino-1-(5-isoxazolyl)propyl]thio-6-methyl-3-pyridinecarbonitrile Ethanedioate] came in with a melting point of 165 to 167 °C. `N#Cc1ccc(C(F)(F)F)nc1O[C@H](CCN)c1ccon1.O=C(O)/C=C/C(=O)O` [Example 11, 2-[[(1R)-3-Amino-1-(3-isoxazolyl)propyl]oxy]-6-(trifluoromethyl)-3-pyridinecarbonitrile (E)-butenedioate] displayed a melting point of 160 to 161 °C. `Cl.N#Cc1ccc(C(F)(F)F)nc1O[C@H](CCN)c1nccs1` [Example 12, 2-[[(1R)-3-Amino-1-(2-thiazolyl)propyl]oxy]-6-(trifluoromethyl)-3-pyridinecarbonitrile Hydrochloride] registered a melting point of 151 to 153 °C. `N#Cc1cnc(N)cc1S[C@H](CCN)c1ccno1.O=C(O)/C=C/C(=O)O` [Example 14, 6-Amino-4-[[(1R)-3-amino-1-(5-isoxazolyl)propyl]thio]-3-pyridinecarbonitrile (E)-butenedioate] showed a melting point of 160 to 163 °C. The compound `COc1cc(S[C@H](CCN)c2ccno2)c(C#N)cn1.O=C(O)/C=C/C(=O)O` [Example 16, 4-[[(1R)-3-Amino-1-(5-isoxazolyl)propyl]thio]-6-methoxy-3-pyridinecarbonitrile (E)-butenedioate] yielded a melting point of 152 to 153 °C. The result for `N#Cc1ccc(C(F)(F)F)nc1O[C@H](CCN)c1cc(Cl)no1.O=C(O)/C=C/C(=O)O` [Example 18, 2-[[(1R)-3-Amino-1-(3-chloro-5-isoxazolyl)propyl]oxy]-6-(trifluoromethyl)-3-pyridinecarbonitrile (E)-butenedioate] reads 151 to 152 °C. Compound `Cc1ccc(C#N)c(S[C@H](CCN)c2cc(Cl)no2)n1.O=C(O)/C=C/C(=O)O` [Example 19, 2-[[(1R)-3-Amino-1-(3-chloro-5-isoxazolyl)propyl]thio]-6-methyl-3-pyridinecarbonitrile (E)-butenedioate] returned a melting point of 186 to 187 °C. In turn, `Cc1ccc(C#N)c(SC(CCN)c2ccns2)n1.O=C(O)C(=O)O` (stereo not drawn) [Example 21, 2-[[3-Amino-1-(5-isothiazolyl)propyl]thio]-6-methyl-3-pyridinecarbonitrile Ethanedioate] yielded a melting point of 103 to 104 °C. The result for `Cc1ccc(C#N)c(OC(CCN)c2ccns2)n1.O=C(O)C(=O)O` (stereo not drawn) [Example 22, 2-[3-Amino-1-(5-isothiazolyl)propoxy]-6-methyl-3-pyridinecarbonitrile Ethanedioate] reads 175 to 177 °C. In the case of `Cc1cc([C@@H](CCN)Oc2nc(C(F)(F)F)ccc2C#N)no1` [Example 24, 2-[[(1R)-3-Amino-1-(5-methyl-3-isoxazolyl)propyl]oxy]-6-(trifluoromethyl)-3-peridinecarbonitrile Ethanedioate], the melting point was in the range of 163 to 165 °C. `COc1cc(O[C@H](CCN)c2ccon2)c(C#N)cn1.O=C(O)C(=O)O` [Example 25, 4-[[(1R)-3-Amino-1-(3-isoxazolyl)propyl]oxy]-6-methoxy-3-pyridinecarbonitrile Ethanedioate] had a melting point of 173 to 174 °C. The result for `Cc1ccc(C#N)c(SC(CCN)c2nocc2C)n1.O=C(O)C(=O)O` (stereo not drawn) [Example 26, 2-[[3-Amino-1-(4-methyl-3-isoxazolyl)propyl]thio]-6-methyl-3-pyridinecarbonitrile Ethanedioate] reads 132 to 134 °C. In turn, `Cc1cc(SC(CCN)c2scnc2Cl)c(C#N)cn1.O=C(O)/C=C/C(=O)O` (stereo not drawn) [Example 28, 4-[[3-Amino-1-(4-chloro-5-thiazolyl)propyl]thio]-6-methyl-3-pyridinecarbonitrile (E)-butenedioate] showed a melting point of 180 to 181 °C. `N#Cc1ccc(C(F)(F)F)nc1OC(CCCN)c1ccno1.O=C(O)/C=C/C(=O)O` (stereo not drawn) [Example 42, 2-[4-Amino-1-(5-isoxazolyl)butoxy]-6-(trifluoromethyl)-3-pyridinecarbonitrile (E)-butenedioate] returned a melting point of 155 to 157 °C.

The term melting point denotes the temperature, or range, at which the solid turns liquid.
